The values that follow come from patent EP3840748B1, “SUBSTITUTED IMIDAZOLES FOR THE INHIBITION OF TGF-BETA AND METHODS OF TREATMENT” (Clavius Pharmaceuticals, LLC, priority 2018, dated 2020).

In test [1] the test system is TGF-beta 1 stimulated SBE-bla HEK 293T. Put plainly: GeneBLAzer beta-lactamase (bla) reporter, TGF-beta 1 stimulated SBE-bla HEK 293T cell-based assay (ThermoFisher SelectScreen). The note with it: Homo sapiens; SBE-bla HEK 293T cells; 30 minutes pre-incubation with inhibitor; TGF-beta 1 0.03 nM, 5 hours; inhibitor 10,000nM to 0.316nM; read-out: Cells (SBE_HEK293T) IC50. The source says: (§1) Table 2, below, describes the results of assays carried out on some compounds provided by the present disclosure. Exemplified compounds are confirmed to inhibit ALK5 activity in enzyme and cellular assays in the following assay systems conducted by ThermoFisher in Madison, WI according to their commercially available protocols.
ThermoFisher SelectScreen™ Cell-based Pathway Profiling Service GeneBLAzer Beta-lactamase (bla) Reporter Technology - TGF-beta 1 stimulated SBE-bla HEK 293T Cell-based Assay
SBE-bla HEK 293T cells are thawed and re-suspended in Assay Media (OPTI-MEM, 0.5% dialyzed FBS, 0.1 mM NEAA, 1 mM Sodium Pyruvate, 100 U/mL/100 µg/mL Pen/Strep) to a concentration of 625,000 cells/mL. 32 µL of cell suspension (20,000 cells) is added to each well of a 384-well Poly-D-Lysine assay plate. Cells in Assay Media are incubated for 16-24 hours in the plate at 37°C/5% CO2 in a humidified incubator. 4 µL of a 10X serial dilution of ALK5 inhibitors (10x = 100,000-3.16 nM) is added to appropriate wells of the plate and pre-incubated at 37°C/5% CO2 in a humidified incubator with cells for 30 minutes. Final concentration of inhibitor ranged from 10,000nM to 0.316nM. 4 µL of 10X TGF-beta 1 (final concentration of 0.03 nM) is added to wells containing the inhibitors. The plate is incubated for 5 hours at 37°C/5% CO2 in a humidified incubator. 8 µL of 1 µM Substrate Loading Solution is added to each well and the plate is incubated for 2 hours at room temperature before being read on a fluorescence plate reader. Percent inhibition is determined compared to DMSO only control (maximal TGF-beta 1 stimulation) and sigmoidal dose response curve fit yielded IC50 values as indicated in Table 2. TABLE 2: Biological activity assay results

The target in test [2] is T1, TGFBR1 (ALK5) (Homo sapiens, UniProt P36897).
T1 sequence (P36897 34-503): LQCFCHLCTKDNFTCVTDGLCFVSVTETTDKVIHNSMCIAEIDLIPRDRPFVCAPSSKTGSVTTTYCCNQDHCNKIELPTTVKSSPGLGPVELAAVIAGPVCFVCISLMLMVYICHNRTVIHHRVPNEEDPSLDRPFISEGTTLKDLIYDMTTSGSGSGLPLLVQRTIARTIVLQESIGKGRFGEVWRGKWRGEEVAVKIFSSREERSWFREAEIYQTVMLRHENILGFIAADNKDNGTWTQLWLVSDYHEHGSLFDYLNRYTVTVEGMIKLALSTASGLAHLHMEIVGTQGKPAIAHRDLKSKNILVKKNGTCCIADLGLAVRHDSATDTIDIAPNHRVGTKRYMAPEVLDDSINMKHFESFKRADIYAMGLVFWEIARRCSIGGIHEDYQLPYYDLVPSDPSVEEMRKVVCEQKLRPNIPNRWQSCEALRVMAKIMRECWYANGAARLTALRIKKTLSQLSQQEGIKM
Put plainly: LanthaScreen Eu Kinase Binding Assay TGFBR1 (ALK5) (ThermoFisher SelectScreen). The settings on record: ALK5 5 nM, Tracer #178 5 nM, Eu-anti-GST antibody 2 nM, 1 hour at room temperature, 1% DMSO; read-out: TβRI (ALK5) Binding IC50.
Excerpt: as §1
ThermoFisher SelectScreen™ Biochemical Kinase Profiling Service, LanthaScreen™Eu Kinase Binding Assay TGFBR1 (ALK5)
Exemplified compounds are screened in 1% DMSO (final concentration) by 3-fold serial dilutions from 10,000 nM to 0.316 nM or at single concentrations of 10,000, 1000 and 100 nM according to the following protocol. To low volume, white 384-well plates (Greiner Cat#784207) add 160 nL 100x compound in 100% DMSO, 3.84 uL kinase buffer (50 mM HEPES, pH 7.5, 0.01% BRIJ-35, 10 mM MgCl2, 1 mM EGTA), 8 uL 2x kinase/antibody mixture in kinase buffer (final ALK5 concentration of 5 nM; final Eu-anti-GST antibody concentration of 2 nM), 4 uL 4x Tracer #178 in kinase buffer (final concentration of 5 nM). Gently shake the plates for 30 seconds and incubate at room temperature for 1 hour before reading fluorescence on a plate reader. Percent inhibition is determined compared to DMSO only control (maximal ALK5 tracer binding) and sigmoidal dose response curve fit yielded IC50 values as indicated in Table 2.

SMILES strings stand for the structures. Counter-ions that a name gives are not always drawn.

For the molecule `Cn1cnc2ccc(-c3c(-c4ccn(CC(F)F)n4)nc4n3CCC4)cc2c1=O` [Compound 50, 6-{3-[1-(2,2-Difluoroethyl)-1H-pyrazol-3-yl]-1,4-diazabicyclo[3.3.0]octa-2,4-dien-2-yl}-3-methyl-3H-quinazolin-4-one], the IC50 came to 253 nM in test [1] and 90 nM in test [2]. In the case of `O=c1c2cc(-c3c(-c4ccn(C5CC5)n4)nc4n3CCC4)ccc2ncn1CCN1CCOCC1` [Compound 28, 6-{3-(1-Cyclopropyl-1H-pyrazol-3-yl)-1,4-diazabicyclo[3.3.0]octa-2,4-dien-2-yl}-3-(2-morpholinoethyl)-3H-quinazolin-4-one], in test [2], the IC50 was determined as 107 nM. Consider `Cn1cnc2ccc(-c3c(-c4ccn(C5CCC5)n4)nc4n3CCC4)cc2c1=O` [Compound 94, 6-(2-(1-Cyclobutyl-1H-pyrazol-3-yl)-6,7-dihydro-5H-pyrrolo[1,2-a]imidazol-3-yl)-3-methylquinazolin-4(3H)-one], for which the IC50 in test [1] came to 4080 nM; in test [2], 27 nM.

As to `NC(=O)c1cnc2ccc(-c3c(-c4ccn(C5CC5)n4)nc4n3CCC4)cn12` [Compound 8, 5-{3-(1-Cyclopropyl-1H-pyrazol-3-yl)-1,4-diazabicyclo[3.3.0]octa-2,4-dien-2-yl}-1,3a-diaza-3-indenecarboxamide], the IC50 in test [1] was 84 nM; in test [2], 3.3 nM. In the same order, the values of `CC(C)n1ccc(-c2nc3n(c2-c2ccc4ncc(C(N)=O)n4c2)CCC3)n1` [Compound 7, 5-{3-(1-Isopropyl-1H-pyrazol-3-yl)-1,4-diazabicyclo[3.3.0]octa-2,4-dien-2-yl}-1,3a-diaza-3-indenecarboxamide] are 248 nM and 5.5 nM. For `CC(C)n1ccc(-c2nc3sccn3c2-c2ccc3ncn(C)c(=O)c3c2)n1` [Compound 91, 6-(6-(1-Isopropyl-1H-pyrazol-3-yl)imidazo [2,1-b]thiazol-5-yl)-3-methylquinazolin-4(3H)-one] the same measures were 1100 nM and 22 nM. For the molecule `O=C(NC1CCOCC1)c1ccc(-c2cc(-c3c(-c4ccn(C5CC5)n4)nc4n3CCC4)ccn2)cc1` [Compound 88, 4-(4-(2-(1-Cyclopropyl-1H-pyrazol-3-yl)-6,7-dihydro-5H-pyrrolo[1,2-a]imidazol-3-yl)pyridin-2-yl)-N-(tetrahydro-2H-pyran-4-yl)benzamide], the results for the IC50 in test [1] and in test [2] were 988 nM and 55 nM, respectively. For `NC(=O)c1ncnc2ccc(-c3c(-c4ccn(C5CC5)n4)nc4n3CCC4)cc12` [Compound 95, 6-(2-(1-Cyclopropyl-1H-pyrazol-3-yl)-6,7-dihydro-5H-pyrrolo[1,2-a]imidazol-3-yl)quinazoline-4-carboxamide] the same measures were 151 nM and 8.9 nM. In the same order, the values of `Cn1cnc2ccc(-c3c(-c4ccn(C5CC5)n4)nc4n3CCN4)cc2c1=O` [Compound 22, 6-{3-(1-Cyclopropyl-1H-pyrazol-3-yl)-1,4,6-triazabicyclo[3.3.0]octa-2,4-dien-2-yl}-3-methyl-3H-quinazolin-4-one] are 27.4 nM and 7.2 nM.

For `Oc1ncnc2ccc(-c3c(-c4ccn(C5CC5)n4)nc4n3CCC4)cc12` [Compound 16, 6-{3-(1-Cyclopropyl-1H-pyrazol-3-yl)-1,4-diazabicyclo[3.3.0]octa-2,4-dien-2-yl}-3H-quinazolin-4-one], the IC50 in test [1] was 117 nM; in test [2], 2.6 nM. For `CC(C)n1ccc(-c2nc3sccn3c2-c2ccc3nc[nH]c(=O)c3c2)n1` [Compound 97, 6-(6-(1-Isopropyl-1H-pyrazol-3-yl)imidazo[2,1-b]thiazol-5-yl)quinazolin-4(3H)-one hydrochloride] the same measures were 528 nM and 12.5 nM. In the same order, the values of `Oc1ncnc2ccc(-c3c(-c4ccn(C5CC5)n4)nc4n3CCC4)cc12` [Compound 92, 6-(2-(1-Cyclopropyl-1H-pyrazol-3-yl)-6,7-dihydro-5H-pyrrolo[1,2-a]imidazol-3-yl)quinazolin-4-ol] are 57 nM and 11 nM. For `NC(=O)c1ncnc2ccc(-c3c(-c4ccn(C5CC5)n4)nc4sccn34)cc12` [Compound 96, 6-(6-(1-Cyclopropyl-1H-pyrazol-3-yl)imidazo[2,1-b]thiazol-5-yl)quinazoline-4-carboxamide] the same measures were 24.9 nM and 1.7 nM.

As for `O=c1[nH]cnc2ccc(-c3c(-c4ccn(C5CC5)n4)nc4sccn34)cc12` [Compound 90, 6-{7-(1-Cyclopropyl-1H-pyrazol-3-yl)-4-thia-1,6-diazabicyclo[3.3.0]octa-2,5,7-trien-8-yl}-3H-quinazolin-4-one], the values for the IC50 in test [1] and in test [2] were 35.6 nM and 2.5 nM, respectively. Consider `O=C(c1ccc(-c2cc(-c3c(-c4ccn(C5CC5)n4)nc4n3CCC4)ccn2)cc1)N1CCOCC1` [Compound 93, (4-(4-(2-(1-Cyclopropyl-1H-pyrazol-3-yl)-6,7-dihydro-5H-pyrrolo[1,2-a]imidazol-3-yl)pyridin-2-yl)phenyl)(morpholino)methanone], for which, in test [2], the IC50 was determined as 244 nM.

Take `CC(C)(O)c1cnc2ccc(-c3c(-c4ccn(C5CC5)n4)nc4n3CCC4)cn12` [Compound 75, 2-(6-(2-(1-Cyclopropyl-1H-pyrazol-3-yl)-6,7-dihydro-5H-pyrrolo[1,2-a]imidazol-3-yl)imidazo[1,2-a]pyridin-3-yl)propan-2-ol]: the values for the IC50 in test [1] and in test [2] were 930 nM and 66 nM, respectively. For the molecule `Cn1cnc2ccc(-c3c(-c4ccn(C5CC5)n4)nc4occn34)cc2c1=O` [Compound 26, 6-{7-(1-Cyclopropyl-1H-pyrazol-3-yl)-4-oxa-1,6-diazabicyclo[3.3.0]octa-2,5,7-trien-8-yl}-3-methyl-3H-quinazolin-4-one], the values for the IC50 in test [1] and in test [2] were 33.8 nM and 3.1 nM, respectively.

As to `Cn1cnc2ccc(-c3c(-c4ccn(C5CC5)n4)nc4n3CCC4)cc2c1=O` [Compound 18, 6-{3-(1-Cyclopropyl-1H-pyrazol-3-yl)-1,4-diazabicyclo[3.3.0]octa-2,4-dien-2-yl}-3-methyl-3H-quinazolin-4-one], the IC50 was 69 nM in test [1] and 6.7 nM in test [2].

For the molecule `O=c1[nH]cnc2ccc(-c3c(-c4ccn(C5CC5)n4)nc4occn34)cc12` [Compound 24, 6-{7-(1-Cyclopropyl-1H-pyrazol-3-yl)-4-oxa-1,6-diazabicyclo[3.3.0]octa-2,5,7-trien-8-yl}-3H-quinazolin-4-one], the results for the IC50 in test [1] and in test [2] were 37 nM and 1.8 nM, respectively. For `CS(=O)(=O)c1ccc(-c2cc(-c3c(-c4ccn(C5CC5)n4)nc4n3CCC4)ccn2)cc1` [Compound 86, 2-(1-Cyclopropyl-1H-pyrazol-3-yl)-3-(2-(4-(methylsulfonyl)phenyl)pyridin-4-yl)-6,7-dihydro-5H-pyrrolo[1,2-a]imidazole] the same measures were 1400 nM and 129 nM. For `Cn1cnc2ccc(-c3c(-c4ccn(C5CC5)n4)nc4sccn34)cc2c1=O` [Compound 89, 6-{7-(1-Cyclopropyl-1H-pyrazol-3-yl)-4-thia-1,6-diazabicyclo[3.3.0]octa-2,5,7-trien-8-yl}-3-methyl-3H-quinazolin-4-one], the IC50 in test [1] was determined as 27 nM; in test [2], 2.5 nM.
